Reference: PMC10197776 (Research Square, 2023)

Legend:
SARS-CoV-2 = test system: SARS-CoV-2; set-up: method as in PMID 35352927; settings: TMPRSS2 VeroE6 model of SARS-CoV-2 infection; read-out: EC50 (antiviral); cited from earlier work
SARS-CoV-2 3CL^pro = SARS-CoV-2 3CL^pro (Severe acute respiratory syndrome coronavirus 2, UniProt P0DTD1); assay: biochemical; type: biochemical; settings: for IC50: SARS-CoV-2 3CLpro
SARS-CoV2 = test system: SARS-CoV2; set-up: method as in PMID 33786375, PMID 34161756; settings: SARS-CoV2 plaque reduction assay; read-out: antiviral EC50; cited from earlier work
[1] = Intrinsic clearance in human S9 fractions; type: in vitro ADME
[2] = Intrinsic clearance in human microsomes; type: in vitro ADME

## Cn1cnc(Cn2c(=O)[nH]/c(=N\c3cc4cn(C)nc4cc3Cl)n(Cc3cc(F)c(F)cc3F)c2=O)n1 [compound 2, Ensitrelvir]
SARS-CoV-2
  EC50: 370 nM

## O=C(Cc1cncc2ccccc12)N(Cc1cc(F)cc(Cl)c1)c1ccc(-c2c[nH]cn2)cc1 [compound 27]
SARS-CoV-2 3CL^pro; IC50 ratio vs 19
  fold improvement in IC50 compared to monocyclic pyridine 19: > 6 fold
SARS-CoV-2 3CL^pro
  IC50: 26 nM
SARS-CoV-2 3CL^pro; from 3CLpro IC50 and calculated properties
  LipE: 2.24

## N#Cc1ccccc1-c1cc(-c2cc(Cl)cc(OCC3CC3)c2)c(=O)n(-c2cccnc2)c1 [compound 3]
SARS-CoV2
  EC50: 980 nM

## O=C(Cc1cccnc1)N(Cc1cccc(Cl)c1)c1ccc(-c2cn[nH]c2)cc1 [compound 7]
[1]
  reduction in intrinsic clearance metabolism versus 6: two-fold reduction
SARS-CoV-2 3CL^pro
  IC50: 1270 nM
SARS-CoV-2 3CL^pro; from 3CLpro IC50
  LE (ligand efficiency): 0.27
[2]
  reduction in intrinsic clearance metabolism versus 6: two-fold reduction
